# Patent US9856480B2, “Dnazyme for silencing the expression of EGFR” (DCB-USA LLC, priority 2013, dated 2018)
# Strand notation (5' to 3'): a small letter for the sugar, then the base; units joined by * are phosphorothioate-linked, units joined directly phosphodiester-linked; [ ] holds rarer units or linkages, { } end groups; capitals alone tell only the bases. d = 2'-deoxy (DNA)
# Assays:
# Assay type in all cases: cell-based, human
# wild-type EGFR mRNA = test: Quantitative real-time PCR of EGFR mRNA knockdown; conditions: 100 nM, 48 h
# Protocol: A549, CL1-5, H1975, or CL97 was seeded onto 6-well at 3×10^5 cells/well and cultured overnight. Then, cells were separately treated with 100 nM DzControl or DzT790M-1 with lipofectamine 2000 (Invitrogen). After 48 h, total mRNA were extracted from DNAzyme-treated cells by Mestrisol following manufacturer's protocol. cDNA were synthesized by using RT III kit with random hexamers as primers (Invitrogen). The PCR primers were synthesized by Genomics BioSci & Tech (Taipei, Taiwan). The sequences of PCR primers are listed as follows: […]
# The parameters for PCR were: 95° C. for 10 min, then 25 cycles of PCR at 95° C. for 30 s, 60° C. for 30 s, and 72° C. for 60 s. 3% agarose gels were used for electrophoresis of PCR products. The intensity of bands were quantified by Image J. Quantitative RT-PCR was performed on 40 ng total mRNA with the LightCycler 480 system (Roche). The PCR mix contained 5 μl of 2× Probe Master mix, 100 nM of UPL probe (Roche Diagnostics, Penzberg, Germany), 200 nM of forward primer and reverse primer, 0.1 ul RNAseout (Invitrogen), and 0.025 ul RTIII enzyme (Invitrogen) in a total volume of 10 μl. PCR parameters were as follows: 50° C. for 40 min, then 45 cycles of PCR at 95° C. for 10 s, 60° C. for 10 s, and 72° C. for 2 s. Data were analyzed by LC480 software (Roche Diagnostics, Penzberg, Germany). The relative amount of EGFR mRNA was normalized to ACTB mRNA. The sequences of PCR primers are as follows: […]
# To examine the allele selectivity of DzT790M-1, EGFR mRNA knockdown efficiency was detected in two cell lines harboring wild-type EGFR (A549, CL1-5) and two cell lines containing EGFR T790M mutation (H1975, CL97). A549, CL1-5, H1975, or CL97 was seeded onto 6-well at 3×10^5 cells/well and cultured overnight. […]
# Then, A549 and PC9 cells were separately treated with 50, 100, or 150 nM control DNAzyme or DzEGFR—ΔE746-A750 with Lipofectamine 2000 for 48 h. […] Quantitative RT-PCR was performed on 40 ng total mRNA with the LightCycler 480 system (Roche). […] Data were analyzed by LC480 software (Roche Diagnostics). […]
# CL97 cells = test: Apoptosis assay (annexin V and PI, flow cytometry); conditions: 100 nM, 48 h
# Protocol: H1975 or CL97 was seeded onto 10-cm dish and cultured overnight. Then, cells were separately treated with 100 nM DzControl or DzT790M-1 with lipofectamine 2000 (Invitrogen). After 48 h, cells were collected, double stained by annexin V and PI, and analyzed by flow cytometry following the protocol of Dead cell apoptosis kit from manufacturer (Invitrogen).
# [1] = test system: CL1-5 cells (EGFR wild-type); test: Cell proliferation assay (cell counting); conditions: 100 nM, 0-72 h after transfection
# Protocol: (§1) A549, CL1-5, H1975, or CL97 was seeded onto 6-well and cultured overnight. Then, cells were separately treated with 100 nM DzControl or DzT790M-1 with lipofectamine 2000 (Invitrogen). Cells were trypsinized and counted at 0 h, 24 h, 48 h, or 72 h after transfection.
# (§2) EGFR and downstream signaling pathway regulates important cell functions including cell proliferation and survival. In order to examine functional effects of DzT790M-1 on cell survival, the number of cells was counted after DzControl or DzT790M-1 transfection respectively. In A549 and CL1-5 cells (EGFR wild-type), the rate of cell proliferation or the cell number was not different between DzControl and DzT790M-1 transfected group (FIGS. 4A and 4B). In H1975 and CL97 cells (EGFR T790M), DzControl transfected cells were continued to grow after transfection when the number of DzT790M-1 treated cells was reduced (FIGS. 4C and 4D). In order to figure out whether DzT790M-1 treated cells undergoes cell apoptosis, immunoblotting against cleaved form of PARP and immunostaining of annexin V and PI were performed. The cleavage of PARP is caused by increased activity of caspase-3 and serves as a marker for cell apoptosis. […] While only 3.6% of cells underwent apoptosis and 12.4% of cells were dead in DzControl transfected H1975 cells, 18.6% of cells were detected as apoptotic cells and 32.6% of cells were annexin V and PI double positive in DzT790M-1 treated group (FIG. 4F).
# [2] = test system: A549 cells (EGFR wild-type); test: Cell proliferation assay (cell counting); conditions: 100 nM, 0-72 h after transfection
# Protocol: as §1, §2
# H1975 cells (EGFR T790M) = test: Cell proliferation assay (cell counting); conditions: 100 nM, 0-72 h after transfection
# Protocol: as §1, §2
# CL97 cells (EGFR T790M) = test: Cell proliferation assay (cell counting); conditions: 100 nM, 0-72 h after transfection
# Protocol: as §1, §2
substance,measurement,setting,value
"DzT790M-1: 10-23 DNAzyme against EGFR T790M mRNA, arms 10/4, phosphorothioate ends: AGCTGCATGAGGCTAGCTACAACGAGAGC (DNA dA*dGdCdTdGdCdAdTdGdAdGdGdCdTdAdGdCdTdAdCdAdAdCdGdAdGdAdG*dC; further chemistry not fully specified)",wild-type EGFR mRNA knockdown,wild-type EGFR mRNA; A549 cells,1.1%
same,wild-type EGFR mRNA knockdown,wild-type EGFR mRNA; CL1-5 cells,19.2%
same,percentage of apoptotic cells in whole cell population,CL97 cells,27.4%
same,percentage of dead cells in whole cell population,CL97 cells,25.1%
same,rate of cell proliferation or cell number vs DzControl transfected group,[1],not different
same,rate of cell proliferation or cell number vs DzControl transfected group,[2],not different
same,number of cells after transfection,H1975 cells (EGFR T790M),reduced
same,number of cells after transfection,CL97 cells (EGFR T790M),reduced
